According to paper PMC7294232, “Synthesis and biological evaluation of novel quinoline-piperidine scaffolds as antiplasmodium agents” (European Journal of Medicinal Chemistry, 2020):
Like-named read-outs stand apart in the source and are kept apart here.

Columns and labels:
[1] = tested on: CQ-sensitive strain of P. falciparum (NF54); experiment: in vitro antiplasmodium assay (parasite lactate dehydrogenase), CQ-sensitive strain; assay type: cell-based, Plasmodium falciparum; conditions: for IC50: Plasmodium falciparum
[2] = tested on: CQ-resistant strain of P. falciparum (K1); experiment: in vitro antiplasmodium assay (parasite lactate dehydrogenase), CQ-resistant strain; assay type: cell-based, Plasmodium falciparum; conditions: for IC50: Plasmodium falciparum; for activity lowered by omitting the 7-chlorine atom: CQ-resistant strain, versus 7-chloro analogues
[3] = tested on: Chinese hamster ovarian (CHO) cells; experiment: in vitro cytotoxicity, MTT-assay; assay type: cell-based; conditions: for IC50: Cricetulus griseus, CHO; for SI (selectivity index): IC50 CHO/IC50 NF54
Experimental: An antiplasmodium assay was performed on this set of 18 novel quinoline-piperidine analogues to establish their potential as antimalarial agents. […] All compounds were screened for in vitro antiplasmodium activity against a CQ-sensitive strain of P. falciparum (NF54). Subsequently, compounds showing promising antiplasmodium activity were also tested against a CQ-resistant strain of P. falciparum (K1) and analysed for in vitro cytotoxicity against a mammalian cell line, Chinese hamster ovarian (CHO) cells, using the 3-(4,5-dimethylthiazol-2-yl)-2,5-diphenyltetrazoliumbromide (MTT)-assay. Continuous in vitro cultures of asexual erythrocyte stages of P. falciparum were maintained using a modified method of Trager and Jensen, and quantitative assessment of antiplasmodium activity in vitro was determined via the parasite lactate dehydrogenase assay using a modified method described by Makler. The test samples were tested in triplicate on one occasion. The MTT-assay was used as a colorimetric assay for cellular growth and survival, and compares well with other available assays. The tetrazolium salt MTT was used to measure all growth and chemosensitivity. Again, samples were tested in triplicate on one occasion. Chloroquine was used as reference compound in both antiplasmodium screenings, while emetine was used as known antiprotozoal agent in the MTT-assay.
The same stock solutions prepared for antiplasmodium testing were used for cytotoxicity testing. Test compounds were stored at −20 °C until use. Dilutions were prepared on the day of the experiment. Emetine was used as the reference drug in all experiments. The initial concentration of emetine was 100 μg/ml, which was serially diluted in complete medium with 10-fold dilutions to give 6 concentrations, the lowest being 0.001 μg/ml. The same dilution technique was applied to all the test samples. The highest concentration of solvent to which the cells were exposed to had no measurable effect on the cell viability (data not shown). The 50% inhibitory concentration (IC50) values were obtained from full dose-response curves, using a non-linear dose-response curve fitting analysis via GraphPad Prism v.4 software.

[4] = CQ-sensitive P. falciparum NF54, mean ± SD, read-out: NF54 IC50
[5] = CQ-resistant P. falciparum K1, mean ± SD, read-out: K1 IC50
[6] = cytotoxicity, CHO cells, MTT, mean ± SD

Question: C=CCN1C[C@@H](OCc2ccccc2)[C@@H](CNc2ccnc3cc(Cl)ccc23)C(C)(C)C1 (relative stereo) [Compound 16a, N-[(cis-1-Allyl-5-benzyloxy-3,3-dimethylpiperidin-4-yl)methyl]-7-chloroquinolin-4-amine] was tested. Which IC50 [1, 4] did it give?
Answer: 0.012 ± 0.001 µM

Question: What about the IC50 [2, 5] of the same compound?
Answer: 0.026 ± 0.0057 µM

Question: And the IC50 [3, 6]?
Answer: 122 ± 41.4 µM

Question: What about the “SI (selectivity index)” value [3] of the same compound?
Answer: 10,149

Question: For C=CCN1C[C@@H](OCc2ccccc2)[C@@H](CNCc2ccnc3ccccc23)C(C)(C)C1 (relative stereo) [Compound 17a, N-[(cis-1-Allyl-5-benzyloxy-3,3-dimethylpiperidin-4-yl)methyl]-1-(quinolin-4-yl)methanamine], which IC50 [1, 4] is on record?
Answer: 2.37 ± 1.05 µM

Question: And the IC50 [2, 5]?
Answer: 3.66 ± 0.43 µM

Question: What about the IC50 [3, 6] of the same compound?
Answer: 139 ± 14.1 µM

Question: And the “SI (selectivity index)” value [3]?
Answer: 59

Question: Which IC50 [1, 4] does the source give for C=CCN1C[C@@H](OCc2ccccc2)[C@@H](CNCc2ccc3ccccc3n2)C(C)(C)C1 (relative stereo) [Compound 17c, N-[(cis-1-Allyl-5-benzyloxy-3,3-dimethylpiperidin-4-yl)methyl]-1-(quinolin-2-yl)methanamine] here?
Answer: 1.57 ± 0.17 µM

Question: And the IC50 [2, 5]?
Answer: 2.82 ± 0.14 µM

Question: And the IC50 [3, 6]?
Answer: 211 ± 31.4 µM

Question: What about the “SI (selectivity index)” value [3] of the same compound?
Answer: 134

Question: C=CCN1C[C@@H](OCc2ccccc2)[C@@H](CNCc2cc3ccccc3nc2Cl)C(C)(C)C1 (relative stereo) [Compound 17f, N-[(cis-1-Allyl-5-benzyloxy-3,3-dimethylpiperidin-4-yl)methyl]-1-(2-chloroquinolin-3-yl)methanamine] was tested. Which IC50 [1, 4] did it give?
Answer: 1.28 ± 0.33 µM

Question: And the IC50 [2, 5]?
Answer: 1.95 ± 0.078 µM

Question: And the IC50 [3, 6]?
Answer: 199 ± 23.3 µM

Question: What about the “SI (selectivity index)” value [3] of the same compound?
Answer: 156

Question: Which IC50 [1, 4] does the source give for C=CCN1C[C@@H](OC)[C@@H](CNCc2ccnc3ccccc23)C(C)(C)C1 (relative stereo) [Compound 17h, N-[(cis-1-Allyl-5-methoxy-3,3-dimethylpiperidin-4-yl)methyl]-1-(quinolin-4-yl)methanamine] here?
Answer: 18 ± 2.44 µM

Question: Which results are given for CCN(CC)CCCC(C)Nc1ccnc2cc(Cl)ccc12 (centres unmarked) [Chloroquine, reference compound]?
Answer: IC50 ([1]; NF54, read-out: IC50 (NF54), footnote reference value, subset c): 0.0113 µM; IC50 ([1]; NF54, read-out: IC50 (NF54), footnote reference value, subset d): 0.0095 µM; IC50 ([1]; NF54, read-out: IC50 (NF54), footnote reference value, subset e): 0.02 µM; IC50 ([1]; NF54, read-out: NF54 IC50, reference value for compound subset c): 0.011 ± 0.001 µM; IC50 ([1]; NF54, read-out: NF54 IC50, reference value for compound subset d): 0.01 µM; IC50 ([1]; NF54, read-out: NF54 IC50, reference value for compound subset e): 0.02 µM; IC50 ([2]; K1, read-out: IC50 (K1)): 0.167 µM

Question: What does the source list for COc1ccc(CNCC2CC3(c4ccccc4)CCN2C3)cc1 (centres unmarked) [Compound 7, 2-[N-(4-methoxybenzyl)aminomethyl]-4-phenyl-1-azabicyclo[2.2.1]heptane]?
Answer: IC50 [1, 4]: 1.55 ± 0.13 µM; antiplasmodium activity (in words) ([1]; in vitro, strain not given): moderate antiplasmodium activity

Question: Clc1ccc2c(NCC3CC4(c5ccccc5)CCN3C4)ccnc2c1 (centres unmarked) [Compound 11a, 7-Chloro-N-[(4-phenyl-1-azabicyclo[2.2.1]heptan-2-yl)methyl]quinolin-4-amine] was tested. Which IC50 [1, 4] did it give?
Answer: 0.021 ± 0.005 µM

Question: And the IC50 [2, 5]?
Answer: 0.033 ± 0.0062 µM

Question: What about the IC50 [3, 6] of the same compound?
Answer: 26 ± 2.9 µM

Question: What about the “SI (selectivity index)” value [3] of the same compound?
Answer: 1266

Question: What does the source list for c1ccc(C23CCN(C2)C(CNc2ccnc4ccccc24)C3)cc1 (centres unmarked) [Compound 11b, N-[(4-Phenyl-1-azabicyclo[2.2.1]heptan-2-yl)methyl]quinolin-4-amine]?
Answer: IC50 [1, 4]: 0.045 ± 0.007 µM; activity lowered by omitting the 7-chlorine atom [2]: 2 to 3 times; IC50 [2, 5]: 0.069 ± 0.0113 µM; IC50 [3, 6]: 11.2 ± 2.1 µM; SI (selectivity index) [3]: 250

Question: For c1ccc(C23CCN(C2)C(CNCc2ccnc4ccccc24)C3)cc1 (centres unmarked) [Compound 12a, N-[(4-Phenyl-1-azabicyclo[2.2.1]heptan-2-yl)methyl]-1-(quinolin-4-yl)methanamine], which IC50 [1, 4] is on record?
Answer: 6.77 ± 0.25 µM

Question: For c1ccc(C23CCN(C2)C(CNCc2cnc4ccccc4c2)C3)cc1 (centres unmarked) [Compound 12b, N-[(4-Phenyl-1-azabicyclo[2.2.1]heptan-2-yl)methyl]-1-(quinolin-3-yl)methanamine], which IC50 [1, 4] is on record?
Answer: 4.07 ± 0.74 µM

Question: c1ccc(C23CCN(C2)C(CNCc2ccc4ccccc4n2)C3)cc1 (centres unmarked) [Compound 12c, N-[(4-Phenyl-1-azabicyclo[2.2.1]heptan-2-yl)methyl]-1-(quinolin-2-yl)methanamine] was tested. Which IC50 [1, 4] did it give?
Answer: 1.27 ± 0.04 µM

Question: For Oc1cccc2ccc(CNCC3CC4(c5ccccc5)CCN3C4)nc12 (centres unmarked) [Compound 12d, 2-{N-[(4-Phenyl-1-azabicyclo[2.2.1]heptan-2-yl)methyl]aminomethyl}quinolin-8-ol], which IC50 [1, 4] is on record?
Answer: 0.72 ± 0.03 µM

Question: What about the IC50 [2, 5] of the same compound?
Answer: 4.64 ± 0.13 µM

Question: What about the IC50 [3, 6] of the same compound?
Answer: 103 ± 19.7 µM

Question: And the “SI (selectivity index)” value [3]?
Answer: 142

Question: How did the IC50 [1, 4] turn out when Clc1nc2ccccc2cc1CNCC1CC2(c3ccccc3)CCN1C2 (centres unmarked) [Compound 12e, N-[(4-Phenyl-1-azabicyclo[2.2.1]heptan-2-yl)methyl]-1-(2-chloroquinolin-3-yl)methanamine] was run?
Answer: 3.6 ± 0.31 µM

Question: Which IC50 [1, 4] does the source give for C=CCN1CCC(CNc2ccnc3cc(Cl)ccc23)C(C)(C)C1 (centres unmarked) [Compound 16b, N-[(1-Allyl-3,3-dimethylpiperidin-4-yl)methyl]-7-chloroquinolin-4-amine] here?
Answer: 0.015 ± 0.0017 µM

Question: And the IC50 [2, 5]?
Answer: 0.025 ± 0.0089 µM

Question: What about the IC50 [3, 6] of the same compound?
Answer: 29.9 ± 1.2 µM

Question: And the “SI (selectivity index)” value [3]?
Answer: 1991

Question: For C=CCN1CCC(CNc2ccnc3ccccc23)C(C)(C)C1 (centres unmarked) [Compound 16c, N-[(1-Allyl-3,3-dimethylpiperidin-4-yl)methyl]quinolin-4-amine], which IC50 [1, 4] is on record?
Answer: 0.236 ± 0.032 µM

Question: And the “activity lowered by omitting the 7-chlorine atom” value [2]?
Answer: 2 to 3 times

Question: What about the IC50 [2, 5] of the same compound?
Answer: 0.0685 ± 0.0078 µM

Question: What about the IC50 [3, 6] of the same compound?
Answer: 27 ± 3.2 µM

Question: And the “SI (selectivity index)” value [3]?
Answer: 114

Question: How did the IC50 [1, 4] turn out when C=CCN1CCC(CNCc2ccnc3ccccc23)C(C)(C)C1 (centres unmarked) [Compound 17b, N-[(1-Allyl-3,3-dimethylpiperidin-4-yl)methyl]-1-(quinolin-4-yl)methanamine] was run?
Answer: 4.94 ± 1.18 µM

Question: Which IC50 [1, 4] does the source give for C=CCN1CCC(CNCc2ccc3ccccc3n2)C(C)(C)C1 (centres unmarked) [Compound 17d, N-[(1-Allyl-3,3-dimethylpiperidin-4-yl)methyl]-1-(quinolin-2-yl)methanamine] here?
Answer: 3.66 ± 0.82 µM

Question: With C=CCN1CCC(CNCc2ccc3cccc(O)c3n2)C(C)(C)C1 (centres unmarked) [Compound 17e, 2-{N-[(1-Allyl-3,3-dimethylpiperidin-4-yl)methyl]aminomethyl}quinolin-8-ol] as the compound, how does the IC50 [1, 4] read?
Answer: 2.89 ± 1.06 µM

Question: Which IC50 [1, 4] does the source give for C=CCN1CCC(CNCc2cc3ccccc3nc2Cl)C(C)(C)C1 (centres unmarked) [Compound 17g, N-[(1-Allyl-3,3-dimethylpiperidin-4-yl)methyl]-1-(2-chloroquinolin-3-yl)methanamine] here?
Answer: 7.75 ± 1.44 µM

Question: With CC[C@H]1CN2CCc3cc(OC)c(OC)cc3[C@@H]2C[C@@H]1C[C@H]1NCCc2cc(OC)c(OC)cc21 [Emetine, reference compound] as the compound, how does the IC50 ([3]; reference value for compound subset c) read?
Answer: 0.04 ± 0.01 µM

Question: What about the IC50 ([3]; reference value for compound subset d) of the same compound?
Answer: 0.14 µM

Question: What about the IC50 ([3]; reference value for compound subset e) of the same compound?
Answer: 0.03 µM
